Structures are written as SMILES.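 Test compounds were applied to cells in 96-well plates for 48 hours at 5 doses. TGI marks complete inhibition of growth.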

One test has as its system 786-0 renal. Description: inhibition of tumour cell growth, NCI panel, 48 h.
For the compound `O=C1Nc2c(ccc(Cl)c2I)C1=O`, the TGI came to 28.2 µM.

In the case of `NC1=NS(=O)(=O)Nc2nc(-c3ccc([N+](=O)[O-])o3)[nH]c21`, the TGI amounted to 29 µM.

As to `CN(C)C(=S)/N=c1\ss/c(=N\C(=S)N(C)C)n1-c1ccc(Cl)c(Cl)c1`, the TGI was greater than 100 µM.

With `COc1cc2cccc(N=Cc3cccc(OC)c3OC(C)C)c2cc1OC`, the TGI is 37.8 µM.

Another test has as its system A498 renal. Description: inhibition of tumour cell growth, NCI panel, 48 h.
The compound `NC1=NS(=O)(=O)Nc2nc(-c3ccc([N+](=O)[O-])o3)[nH]c21` displayed a TGI greater than 100 µM.

`CN(C)C(=S)/N=c1\ss/c(=N\C(=S)N(C)C)n1-c1ccc(Cl)c(Cl)c1` yielded a TGI greater than 100 µM.

Take `COc1cc2cccc(N=Cc3cccc(OC)c3OC(C)C)c2cc1OC`: the TGI was greater than 100 µM.

The next test deals with A549 NSCLC. Description: inhibition of tumour cell growth, NCI panel, 48 h.
Take `O=C1Nc2c(ccc(Cl)c2I)C1=O`: the TGI was greater than 100 µM.

`NC1=NS(=O)(=O)Nc2nc(-c3ccc([N+](=O)[O-])o3)[nH]c21` gave a TGI greater than 100 µM.

For the compound `CN(C)C(=S)/N=c1\ss/c(=N\C(=S)N(C)C)n1-c1ccc(Cl)c(Cl)c1`, the TGI is greater than 100 µM.

Take `COc1cc2cccc(N=Cc3cccc(OC)c3OC(C)C)c2cc1OC`: the TGI turned out to be 86.5 µM.

In a further test the test system is ACHN renal. Description: inhibition of tumour cell growth, NCI panel, 48 h.
In turn, `O=C1Nc2c(ccc(Cl)c2I)C1=O` gave a TGI of 29 µM.

With `NC1=NS(=O)(=O)Nc2nc(-c3ccc([N+](=O)[O-])o3)[nH]c21`, the TGI worked out at 30.5 µM.

`CN(C)C(=S)/N=c1\ss/c(=N\C(=S)N(C)C)n1-c1ccc(Cl)c(Cl)c1`: the TGI is greater than 100 µM.

`COc1cc2cccc(N=Cc3cccc(OC)c3OC(C)C)c2cc1OC` showed a TGI greater than 100 µM.

The next test has as its system CAKI-1 renal. Description: inhibition of tumour cell growth, NCI panel, 48 h.
In the case of `O=C1Nc2c(ccc(Cl)c2I)C1=O`, the TGI was found to be 30.6 µM.

In turn, `NC1=NS(=O)(=O)Nc2nc(-c3ccc([N+](=O)[O-])o3)[nH]c21` came in with a TGI of 35.7 µM.

For the compound `CN(C)C(=S)/N=c1\ss/c(=N\C(=S)N(C)C)n1-c1ccc(Cl)c(Cl)c1`, the TGI was greater than 100 µM.

In turn, `COc1cc2cccc(N=Cc3cccc(OC)c3OC(C)C)c2cc1OC` returned a TGI of 42.9 µM.

Another test concerns CCRF-CEM leukemia. As to the kind of experiment: inhibition of tumour cell growth, NCI panel, 48 h.
In turn, `O=C1Nc2c(ccc(Cl)c2I)C1=O` showed a TGI of 60.9 µM.

The compound `NC1=NS(=O)(=O)Nc2nc(-c3ccc([N+](=O)[O-])o3)[nH]c21` registered a TGI of 16.9 µM.

Consider `CN(C)C(=S)/N=c1\ss/c(=N\C(=S)N(C)C)n1-c1ccc(Cl)c(Cl)c1`, for which the TGI is greater than 100 µM.

Compound `COc1cc2cccc(N=Cc3cccc(OC)c3OC(C)C)c2cc1OC` displayed a TGI greater than 100 µM.

For the next test, the system named is COLO 205 colon. As to the kind of experiment: inhibition of tumour cell growth, NCI panel, 48 h.
Turning to `O=C1Nc2c(ccc(Cl)c2I)C1=O`, the TGI was 30.8 µM.

As to `CN(C)C(=S)/N=c1\ss/c(=N\C(=S)N(C)C)n1-c1ccc(Cl)c(Cl)c1`, the TGI is greater than 100 µM.

The compound `COc1cc2cccc(N=Cc3cccc(OC)c3OC(C)C)c2cc1OC` yielded a TGI greater than 100 µM.

The subject of the next test is DLD-1 colon. As to the kind of experiment: inhibition of tumour cell growth, NCI panel, 48 h.
`O=C1Nc2c(ccc(Cl)c2I)C1=O` gave a TGI of 35.3 µM.

With `NC1=NS(=O)(=O)Nc2nc(-c3ccc([N+](=O)[O-])o3)[nH]c21`, the TGI was found to be 32 µM.

The compound `COc1cc2cccc(N=Cc3cccc(OC)c3OC(C)C)c2cc1OC` showed a TGI of 70 µM.

Another test relates to DMS 114 small cell lung. As to the kind of experiment: inhibition of tumour cell growth, NCI panel, 48 h.
In turn, `O=C1Nc2c(ccc(Cl)c2I)C1=O` came in with a TGI of 30.1 µM.

`NC1=NS(=O)(=O)Nc2nc(-c3ccc([N+](=O)[O-])o3)[nH]c21` yielded a TGI of 34 µM.

The compound `CN(C)C(=S)/N=c1\ss/c(=N\C(=S)N(C)C)n1-c1ccc(Cl)c(Cl)c1` registered a TGI greater than 100 µM.

On to `COc1cc2cccc(N=Cc3cccc(OC)c3OC(C)C)c2cc1OC`, for which the TGI was determined as 38.7 µM.

Another test has as its system DMS 273 small cell lung. As to the kind of experiment: inhibition of tumour cell growth, NCI panel, 48 h.
`O=C1Nc2c(ccc(Cl)c2I)C1=O` displayed a TGI of 37 µM.

With `NC1=NS(=O)(=O)Nc2nc(-c3ccc([N+](=O)[O-])o3)[nH]c21`, the TGI was 38.7 µM.

`CN(C)C(=S)/N=c1\ss/c(=N\C(=S)N(C)C)n1-c1ccc(Cl)c(Cl)c1`: the TGI was greater than 100 µM.

A further test has as its system EKVX NSCLC. Description: inhibition of tumour cell growth, NCI panel, 48 h.
Compound `O=C1Nc2c(ccc(Cl)c2I)C1=O` gave a TGI of 36.8 µM.

`CN(C)C(=S)/N=c1\ss/c(=N\C(=S)N(C)C)n1-c1ccc(Cl)c(Cl)c1`: the TGI is greater than 100 µM.

For the compound `COc1cc2cccc(N=Cc3cccc(OC)c3OC(C)C)c2cc1OC`, the TGI is greater than 100 µM.

The subject of another test is HCC-2998 colon. Description: inhibition of tumour cell growth, NCI panel, 48 h.
Turning to `O=C1Nc2c(ccc(Cl)c2I)C1=O`, the TGI turned out to be 34.4 µM.

`NC1=NS(=O)(=O)Nc2nc(-c3ccc([N+](=O)[O-])o3)[nH]c21` showed a TGI of 32.2 µM.

For the compound `CN(C)C(=S)/N=c1\ss/c(=N\C(=S)N(C)C)n1-c1ccc(Cl)c(Cl)c1`, the TGI is greater than 100 µM.

`COc1cc2cccc(N=Cc3cccc(OC)c3OC(C)C)c2cc1OC`: the TGI is greater than 100 µM.

The test system of the next test is HCT-116 colon. Description: inhibition of tumour cell growth, NCI panel, 48 h.
`O=C1Nc2c(ccc(Cl)c2I)C1=O` came in with a TGI of 33.4 µM.

For the compound `NC1=NS(=O)(=O)Nc2nc(-c3ccc([N+](=O)[O-])o3)[nH]c21`, the TGI was determined as 17.7 µM.

`CN(C)C(=S)/N=c1\ss/c(=N\C(=S)N(C)C)n1-c1ccc(Cl)c(Cl)c1` displayed a TGI greater than 100 µM.

In a further test the test system is HCT-15 colon. As to the kind of experiment: inhibition of tumour cell growth, NCI panel, 48 h.
In turn, `O=C1Nc2c(ccc(Cl)c2I)C1=O` gave a TGI of 38.6 µM.

As for `NC1=NS(=O)(=O)Nc2nc(-c3ccc([N+](=O)[O-])o3)[nH]c21`, the TGI was found to be 44.1 µM.

Take `CN(C)C(=S)/N=c1\ss/c(=N\C(=S)N(C)C)n1-c1ccc(Cl)c(Cl)c1`: the TGI is greater than 100 µM.

The next test deals with HL-60(TB) leukemia. As to the kind of experiment: inhibition of tumour cell growth, NCI panel, 48 h.
Compound `O=C1Nc2c(ccc(Cl)c2I)C1=O` came in with a TGI of 48.1 µM.
